Experimental findings from patent US20120053148A1, “INHIBITORS OF HEPATITIS C VIRUS” (GILEAD SCIENCES, INC., priority 2010, published 2012) are described below.

The assay relates to HCV Replicon IB. In words: HCV replicon assay in Huh-7 cells, genotype 1b (Rluc luciferase readout). The assay is classed as cell-based, hepatitis C virus. Conditions: for EC50: read-out: EC50_HCV1B_; for inhibition at 10 µM: read-out: Inhibition @ 10 uM in 1b-Rluc.
[1] abbreviates: Hepatitis C virus, Huh-7, 72 h, HCV1B replicon, Huh-7 cells, 3 days.
Where [2] appears, read: Hepatitis C virus, 72 h, 10 uM, 1b-Rluc replicon, Huh-7 cells, 3 days.

Like-named read-outs stand apart in the source and are kept apart here.

For the compound `Cc1cc(-c2nnc(NC3CNCC3O)o2)nc2c(C(C)(C)C)cc(C3CC3)cc12` (stereo not shown) [Compound 396], the EC50 under setting [1] came out at 1110 nM. Turning to `CC(C)(C)c1cc(C2CC2)cc2c(N)cc(C(=O)NCc3ncccn3)nc12` [Compound 319], the EC50 under setting [1] turned out to be 0.81 nM. The same measure, in the same setting: then `CCC(CNC(=O)c1cc(N)c2cc(OC(F)F)cc(C(F)(F)F)c2n1)=NOC` [Compound 316], with 61.8 nM; and `Cc1cc(-c2nnc(NC3CC(C)(O)C3)o2)nc2c(C(C)(C)C)cc(OCC(F)(F)F)cc12` (stereo not shown) [Compound 466], with 0.88 nM. Take `Cc1cc(C(=O)NC[C@@H]2CC(F)(F)CCN2)nc2c(C(F)(F)F)cc(C3CC3)cc12` [Compound 132]: under setting [2], the inhibition – broadly, the relative decrease from the control value, in per cent – at 10 µM is 100%. The same measure, in the same setting: the figure for `CCOCCOCCOCCCNc1nnc(-c2cc(C)c3cc(C4CC4)cc(C(F)(F)F)c3n2)o1` [Compound 253] is 80%.

Regarding `Cc1cc(-c2nnc(NCC3CC(F)(F)CN3)s2)nc2c(C(C)(C)C)cc(C3CC3)cc12` (stereo not shown) [Compound 381], under setting [1], the EC50 came to 2930 nM. `Cc1cc(C(=O)NCCC#N)nc2c(C(F)(F)F)cc(-c3ccccc3)cc12` [Compound 104]: under setting [2], the inhibition at 10 µM stood at 70.3%.

Take `Cc1cc(C(=O)NC[C@H]2CCCO2)nc2c(C(F)(F)F)cc(C3CC3)cc12` [Compound 92]: the inhibition at 10 µM under setting [2] is 100%.

For `Cc1cc(-c2nnc(N[C@H]3CC[C@@H](O)C3)o2)nc2c(C(C)(C)C)cc(OCC(F)(F)F)cc12` (racemic) [Compound 476], under setting [1], the EC50 amounted to 1.32 nM. Consider `COCCCNc1nnc(-c2cc(C)c3cc(C4CC4)cc(C(F)(F)F)c3n2)s1` [Compound 290], for which the inhibition at 10 µM under setting [2] stood at 99.9%. The same measure, in the same setting: the figure for `Cc1cc(C(=O)NCC2OCCO2)nc2c(C(F)(F)F)cc(C3CC3)cc12` [Compound 96] is 99.9%; for `Cc1cc(C(=O)NCc2ccccn2)nc2c(C(F)(F)F)cc(C(C)C)cc12` [Compound 157] it is 98.8%; for `Cc1cc(-c2nnc(NCCCO)o2)nc2c(C(C)(C)C)cc(C3CC3)cc12` [Compound 282] it is 99.9%.

As for `CCCCNc1nnc(-c2cc(C)c3cc(C4CC4)cc(C(C)(C)C)c3n2)s1` [Compound 377], under setting [1], the EC50 stood at 6.23 nM. In the case of `O=C(NCc1ccccn1)c1cc(Cl)c2cc(OC(F)F)cc(C(F)(F)F)c2n1` [Compound 194], under setting [2], the inhibition at 10 µM is 99.5%. In the case of `Cc1cc(-c2nnc(NCC3OCCS3(=O)=O)o2)nc2c(C(C)(C)C)cc(OCC(F)(F)F)cc12` (stereo not shown) [Compound 483], the EC50 under setting [1] was determined as 1.72 nM. On the same count and under the same terms, the figure for `CCCNc1nnc(-c2cc(N)c3cc(C4CC4)cc(C(C)(C)C)c3n2)o1` [Compound 366] is 2.01 nM. For the compound `CC(C)(O)CCNc1nnc(-c2cc(N)c3cc(C4CC4)cc(C(C)(C)C)c3n2)o1` [Compound 367], the EC50 under setting [1] was found to be 2.15 nM. `CC(C)(C)c1cc(C2CC2)cc2c(Cl)cc(C(=O)NCC3COCCN3)nc12` (stereo not shown) [Compound 228]: the inhibition at 10 µM under setting [2] was determined as 94.7%. The same measure, in the same setting: the figure for `Cc1cc(C(=O)NCC2CCCCO2)nc2c(C(F)(F)F)cc(C3CC3)cc12` (stereo not shown) [Compound 81] is 100%. Take `Cc1cc(-c2nnc(N[C@H]3C[C@@H](O)C3)o2)nc2c(C(C)(C)C)cc(C3CC3)cc12` [Compound 421]: under setting [1], the EC50 worked out at 3.24 nM. For the compound `CNC(=O)CNc1nnc(-c2cc(C)c3cc(C4CC4)cc(C(F)(F)F)c3n2)o1` [Compound 264], for the setting “Hepatitis C virus, Huh-7, 72 h”, the inhibition at 10 µM worked out at 99.8%.

Take `Cc1cc(-c2nnc(N[C@H]3C[C@H](O)C3)o2)nc2c(C(C)(C)C)cc(OCC(F)(F)F)cc12` [Compound 463]: the EC50 under setting [1] came out at 3.76 nM. Still for that read-out and setting: the figure for `Cc1cc(-c2nnc(NCCC(C)(C)O)o2)nc2c(C(C)(C)C)cc(C3CC3)cc12` [Compound 409] is 9.43 nM.

On to `CC[C@@]1(O)CN[C@H](CNC(=O)c2cc(C)c3cc(C4CC4)cc(C(C)(C)C)c3n2)C1` [Compound 430], for which, under setting [1], the EC50 turned out to be 1450 nM.

`Cc1cc(-c2nnc(NCCCNS(C)(=O)=O)s2)nc2c(C(F)(F)F)cc(C3CC3)cc12` [Compound 296]: the inhibition at 10 µM under setting [2] amounted to 51.3%. With `CC(C)(C)c1cc(C2CC2)cc2c(N)cc(-c3nnc(NC[C@@H]4CCCO4)o3)nc12` [Compound 350], the EC50 under setting [1] is 1.9 nM. For the compound `Cc1cc(C(=O)NCc2cc(C(F)(F)F)ccn2)nc2c(C(F)(F)F)cc(C3CC3)cc12` [Compound 86], the inhibition at 10 µM under setting [2] worked out at 100%. On the same count and under the same terms, then `Cc1cc(-c2nnc(NCCCN3CCOCC3)o2)nc2c(C(F)(F)F)cc(C3CC3)cc12` [Compound 251], with 80.9%; and `COc1cc(C(F)(F)F)c2nc(-c3nnc(NCC4OCCO4)o3)cc(C)c2c1` [Compound 278], with 99.9%. For `O=C(NCc1ccccn1)c1cc(Cl)c2cc(OC(F)(F)F)cc(/C=C/c3ccccc3)c2n1` [Compound 240], the inhibition at 10 µM under setting [2] stood at 42.2%.

Take `Cc1cc(-c2nnc(NC3CCC(O)(CF)C3)o2)nc2c(C(C)(C)C)cc(OCC(F)(F)F)cc12` (stereo not shown) [Compound 489]: the EC50 under setting [1] was determined as 26.7 nM.

As to `C#Cc1cc(OC(F)(F)F)cc2c(Cl)cc(C(=O)NCc3ccccn3)nc12` [Compound 238], the inhibition at 10 µM under setting [2] came out at 9.91%. Same read-out and setting: the figure for `Cc1cc(C(F)(F)F)c2nc(C(=O)NCc3ccccn3)cc(C)c2c1` [Compound 143] is 93.7%. `CC(C)(C)c1cc(C2CC2)cc2c(N)cc(C(=O)NCc3cnccn3)nc12` [Compound 320]: under setting [1], the EC50 was determined as 1.7 nM. With `CO[C@H]1CN[C@@H](CNC(=O)c2cc(N)c3cc(C4CC4)cc(C(C)(C)C)c3n2)C1` [Compound 327], the EC50 under setting [1] stood at 16.5 nM.

In the case of `Cc1cc(-c2nnc(N)s2)nc2c(C(F)(F)F)cc(C3CC3)cc12` [Compound 305], under setting [2], the inhibition at 10 µM was 96.6%. `CCCCNC(=O)[C@@H]1CSC(c2cc(C)c3cc(OC(F)F)cc(C(F)(F)F)c3n2)=N1` [Compound 340]: under setting [1], the EC50 was determined as 3900 nM. As to `CC(C)(C)c1cc(C2CC2)cc2c(N)cc(C(=O)NCC3CS(=O)(=O)CCN3)nc12` (stereo not shown) [Compound 324], the EC50 (HCV1B replicon, Huh-7 cells, 3 days) stood at 3.63 nM. As for `Cc1cc(-c2nnc(NCC3CSCCN3)s2)nc2c(C(F)(F)F)cc(C3CC3)cc12` (stereo not shown) [Compound 312], the EC50 under setting [1] was 2120 nM. Consider `O=C(NCC1COCCN1)c1cc(C(F)F)c2cc(C3CC3)cc(C(F)(F)F)c2n1` (stereo not shown) [Compound 213], for which, under setting [2], the inhibition at 10 µM was determined as 88.7%.

Take `Cc1cc(C(=O)NC[C@H]2CC(F)(F)CN2)nc2c(C(F)(F)F)cc(C3CC3)cc12` [Compound 128]: under setting [2], the inhibition at 10 µM is 99.4%. Turning to `CNc1cc(C(=O)NCc2ccccn2)nc2c(C(F)(F)F)cc(C3CC3)cc12` [Compound 216], the inhibition at 10 µM under setting [2] worked out at 98.2%. As for `CO[C@H]1CN[C@H](CNC(=O)c2nc(N)c3cc(C4CC4)cc(C(C)(C)C)c3n2)C1` [Compound 432], the EC50 under setting [1] was 83.3 nM. Take `COCCCNc1nnc(-c2cc(C)c3cc(C4CC4)cc(C(F)(F)F)c3n2)o1` [Compound 245]: the inhibition at 10 µM under setting [2] is 100%. In the case of `Cc1cc(-c2nnc(NCCCO)s2)nc2c(C(C)(C)C)cc(C3CC3)cc12` [Compound 380], the EC50 under setting [1] was found to be 12.7 nM. Same read-out and setting: the figure for `Cc1cc(-c2nnc(N[C@H]3C[C@](O)(CCF)C3)o2)nc2c(C(C)(C)C)cc(OCC(F)(F)F)cc12` [Compound 482] is 2.96 nM. In the case of `Cc1cc(C(=O)NCCCN2CCOCC2)nc2c(C(F)(F)F)cc(C3CC3)cc12` [Compound 122], under setting [2], the inhibition at 10 µM was 97.2%. Take `Cc1cc(-c2nnc(Nc3cn[nH]c3)o2)nc2c(C(C)(C)C)cc(C3CC3)cc12` [Compound 400]: the EC50 under setting [1] amounted to 75.5 nM. The same measure, in the same setting: the figure for `Cc1cc(-c2nnc(NC3CCNC3)o2)nc2c(C(C)(C)C)cc(C3CC3)cc12` (stereo not shown) [Compound 399] is 888 nM.

Regarding `Cc1cc(-c2nnc(NCC3OCCO3)o2)nc2c(C(C)(C)C)cc(C3CC3)cc12` [Compound 283], under setting [2], the inhibition at 10 µM came out at 100%. With `CO[C@@H]1CN[C@@H](CNC(=O)c2cc(N)c3cc(C4CC4)cc(C(C)(C)C)c3n2)C1` [Compound 329], under setting [1], the EC50 amounted to 9.8 nM. As to `Cc1cc(-c2nnc(NCCS(C)(=O)=O)o2)nc2c(C(C)(C)C)cc(C3CC3)cc12` [Compound 285], the inhibition at 10 µM under setting [2] stood at 99.6%. Same read-out and setting: the figure for `Cc1cc(C(=O)NCc2ccccn2)nc2c(C(F)(F)F)cc(C3CCCC3)cc12` [Compound 150] is 99%; for `COc1cc(C(F)(F)F)c2nc(-c3nnc(NCC(=O)N(C)C)o3)cc(C)c2c1` [Compound 279] it is 98.4%; for `CC(C)(C)c1cc(C2CC2)cc2c(Cl)cc(C(=O)NCc3ccccn3)nc12` [Compound 229] it is 100%. Regarding `Cc1cc(-c2nnc(Nc3ccccn3)o2)nc2c(C(C)(C)C)cc(OCC(F)(F)F)cc12` [Compound 458], under setting [1], the EC50 was found to be 0.83 nM. As to `CNC(=O)CNC(=O)c1cc(C)c2cc(C3CC3)cc(C(F)(F)F)c2n1` [Compound 116], under setting [2], the inhibition at 10 µM stood at 97.2%. Take `Cc1cc(C(=O)NCC2(C)OCCO2)nc2c(C(F)(F)F)cc(C3CC3)cc12` [Compound 98]: the inhibition at 10 µM under setting [2] worked out at 98.1%. On the same count and under the same terms, then `Cc1cc(-c2nnc(NCC3(C)OCCO3)o2)nc2c(C(F)(F)F)cc(C3CC3)cc12` [Compound 247], with 100%. Turning to `Cc1cc(-c2nnc(NCC3(C)OCCO3)o2)nc2c(C(C)(C)C)cc(OCC(F)(F)F)cc12` [Compound 454], the EC50 under setting [1] amounted to 2.27 nM.

Take `Cc1cc(-c2nnc(NCC3COCCO3)o2)nc2c(C(F)(F)F)cc(C3CC3)cc12` (stereo not shown) [Compound 250]: the inhibition at 10 µM under setting [2] is 99.9%. On the same count and under the same terms, then `Cc1cc(-c2nnc(NC[C@@H](O)CO)s2)nc2c(C(F)(F)F)cc(C3CC3)cc12` [Compound 303], with 98.2%; and `CCCCNc1nnc(-c2cc(C)c3cc(OC)cc(C(F)(F)F)c3n2)o1` [Compound 273], with 100%. Turning to `Cc1cc(-c2nnc(N[C@H]3C[C@@H](O)C3)o2)nc2c(C(C)(C)C)cc(OCC(C)(C)O)cc12` [Compound 536], where the note is “Hepatitis C virus, Huh-7, 72 h”, the EC50 is 31.4 nM. Take `O=C(NCC1(O)CC1)c1cc(Cl)c2cc(C3CC3)cc(C(F)(F)F)c2n1` [Compound 211]: the inhibition at 10 µM under setting [2] is 94.8%.
